Source: patent publication US4618681A, “Aryl substituted 1H-4,5-dihydro-1,2,3-triazoles as anticonvulsants” (priority 1984, dated 1986)
Entries after “also recorded” stand apart in the source; their conditions may differ. Where two headings read alike, the source gives them in different places.

How the values were obtained:
[1] = Subcutaneous Metrazol Seizure Threshold Test (sc Met) in mice; conditions: for Time of Test / time of peak effect (TPE), sc Met / effectiveness by the sc Met test / ED50 sc Met: i.p.; for effectiveness by the sc Met test: Phase V
Procedure: (§1) All animals were allowed free access to both food (S/L Custom Lab Diet-7) and water, except when they were removed from their cages for the experimental procedure.
(§2) The drugs were administered either orally or intraperitoneally in a volume of 0.01 ml/g body weight in mice and 0.04 ml/10 g in rats. All tests were conducted at the previously determined time of peak drug effect.
(§3) The profile of anticonvulsant activity for each substance was established by five tests: one electrical and four chemical. The electrical test employed was the maximal electroshock seizure pattern test. […] Except for the sc Strych Test, these tests measure the ability of anticonvulsants to afford complete protection against threshold seizures induced by the subcutaneous injection of the CD97 of the convulsant agent.
(§4) All convulsants were administered subcutaneously into a loose fold of skin on the back of the neck in a volume of 0.01 ml/g body weight in mice; Metrazol was injected in a volume of 0.02 ml/10 g body weight in rats. The convulsant drugs were administered at the previously determined time of peak anticonvulsant action of the drug under study. […] Except for strychnine, absence of a five-second episode of clonic spasms (threshold seizure) was taken as protection. In the case of strychnine, complete abolition of the hindleg tonic extension was taken as protection.

[2] = Phase I anticonvulsant screening (MES and scMet tests); conditions: for Anticonvulsant Activity Group Classification: Phase I screening, MES and scMet tests, mouse; for anticonvulsant potency: in words; for signs of neurological deficit: at 600 mg/kg (compound 7) and 300 mg/kg (compound 12)
[3] = Subcutaneous Metrazol Seizure Threshold Test (sc Met) in rats; type: in vivo, rats (male albino, Sprague Dawley); conditions: Rattus norvegicus, po, read-out: ED50 sc Met
Procedure: as §2, §3, §4

[4] = type: in vivo; conditions: Phase V, mice, i.p.
Procedure: as §3, §4

in vivo [5] = experiment: in vivo; parameters: species or system mice
Procedure: (§5) The profile of toxicity for each test drug was established by the following procedures: firstly, the minimal neurotoxic dose (TD50) was determined by the rotorod procedure at the time of peak neurotoxic effect. When a normal mouse is placed on a knurled rod one inch in diameter rotating at a speed of six rpm it can maintain its equilibrium for long periods of time. Neurological deficit is indicated by inability of the mouse to maintain its equilibrium for one minute in each of three trials on this rotating rod. Neurological deficit in rats is indicated by ataxia, loss of placing response and muscle tone. […] These observations also provide preliminary information essential for the subsequent determination of the HD50 and LD50. The HD50 represents the median dose at which 50% of animals lose their righting reflex.

[6] = mice
Procedure: as §1, §2, §3

[7] = Phase V, mice, i.p.
Procedure: as §3, §4

[8] = mice; for effectiveness by the sc Pic test: Phase V, i.p.
Procedure: as §3, §4

[9] = Time of peak effect (TPE) over several tests in rats; conditions: p.o., Compound 9: toxicity, MES and sc Met tests
Procedure: as §2

animal or person = conditions: Mus musculus, sc, read-out: sc CD97 of bicuculline
Procedure: as §3, §4

in vivo [10] = conditions: mice, i.p., 24 hour period
Procedure: as §5

[11] = Time of peak effect (TPE) over several tests in mice; conditions: i.p.
Procedure: as §2

[12] = mice, i.p.
Procedure: as §1, §2, §3, §4

[13] = Mus musculus, ip, read-out: ED50 sc Met
[14] = Mus musculus, po, read-out: ED50 scMet

C1CCc2nnnn2CC1 [Metrazol, pentylenetetrazole]
ED97 ([1]; Mus musculus, sc, read-out: sc CD97 of Metrazol): 85 mg/kg

O=[N+]([O-])c1cccc(N2N=NCC2c2ccc(Cl)cc2Cl)c1 (stereo not shown) [Compound 5, 1-(m-Nitrophenyl)-5-(2,4-dichlorophenyl)-Δ^2-1,2,3-triazoline]
Anticonvulsant Activity Group Classification [2]: II (Class II compounds show anticonvulsant activity at doses greater than 100 mg/kg or show activity at 100 mg/kg which is not reinforced by similar activity at 300 mg/kg)

CCOC(=O)c1ccc(N2N=NCC2c2ccncc2)cc1 (stereo not shown) [Compound 8, 1-(p-Ethoxycarbonyl)-5-(4-pyridyl)-Δ^2-1,2,3-triazoline]
Anticonvulsant Activity Group Classification [2]: II (Class II compounds show anticonvulsant activity at doses greater than 100 mg/kg or show activity at 100 mg/kg which is not reinforced by similar activity at 300 mg/kg)

FC(F)(F)c1cccc(N2N=NCC2c2ccccc2Cl)c1 (stereo not shown) [Compound 1, 1-m-trifluoromethylphenyl-5-(o-chlorophenyl)-Δ^2-1,2,3-triazoline]
Anticonvulsant Activity Group Classification [2]: II (Class II compounds show anticonvulsant activity at doses greater than 100 mg/kg or show activity at 100 mg/kg which is not reinforced by similar activity at 300 mg/kg)

Fc1ccc(N2N=NCC2c2ccncc2)cc1 (stereo not shown) [Compound 10, 1-(p-Fluorophenyl)-5-(4-pyridyl)Δ^2-1,2,3-triazoline]
anticonvulsant potency [2]: most potent

Clc1ccc(N2N=NCC2c2ccccn2)cc1 (stereo not shown) [Compound 14, 1-(p-Chlorophenyl)-5-(2-pyridyl)-Δ^2-1,2,3-triazoline]
Anticonvulsant Activity Group Classification [2]: II (Class II compounds show anticonvulsant activity at doses greater than 100 mg/kg or show activity at 100 mg/kg which is not reinforced by similar activity at 300 mg/kg)

FC(F)(F)c1cccc(N2N=NCC2c2ccncc2)c1 (stereo not shown) [Compound 17, 1-(m-trifluoromethylphenyl)-5-(4-pyridyl)-Δ^2-1,2,3-triazoline]
anticonvulsant potency [2]: most potent

CCC1(c2ccccc2)C(=O)NC(=O)NC1=O [Phenobarbital, phenobarbital]
ED50 [3]: 11.6 mg/kg
effectiveness by the sc Strych test [4]: had to be given in toxic doses in order to protect; also recorded: effective in toxic doses
Slope, regression line, HD50 (righting reflex) (in vivo [5]; mice, i.p.): 8.41
ED50 MES ([6]; i.p.): 21.78 mg/kg
Time of Test / time of peak effect (TPE), MES ([6]; i.p.): 1 h
ED50 MES ([6]; p.o.): 20.09 mg/kg
effectiveness by the sc Bic test [7]: effective against sc Met, sc Bic, and sc Pic in nontoxic doses
effectiveness by the sc Pic test [8]: effective against sc Met, sc Bic, and sc Pic in nontoxic doses
TPE [9]: five
ED50 [1, 13]: 13.2 mg/kg
ED50 [1, 14]: 12.6 mg/kg
Time of Test / time of peak effect (TPE), sc Met ([1]; mice): 1 h

picrotoxin
sc CD97 of picrotoxin ([8]; subcutaneous): 3.15 mg/kg

CN1CCc2cc3c(cc2[C@H]1[C@@H]1OC(=O)c2c1ccc1c2OCO1)OCO3 [bicuculline]
ED97 (animal or person): 2.7 mg/kg

CCCC(CCC)C(=O)O [Valproate, valproate]
ED50 ([3]; rats, p.o.): 180 mg/kg
HD50 (righting reflex) (in vivo [5]; mice, i.p.): 885.53 mg/kg
Slope, regression line, HD50 (righting reflex) (in vivo [5]; mice, i.p.): 12.46
Time of Test / time of peak toxicity, righting reflex (in vivo [5]; mice, i.p.): 1/4
LD50 (lethality) (in vivo [10]): 1104.62 mg/kg
Time of Test / time of peak effect (TPE), MES ([6]; i.p.): 1/4
ED50 [1, 13]: 149 mg/kg
ED50 [1, 14]: 388 mg/kg
Time of Test / time of peak effect (TPE), sc Met ([1]; mice): 1/4

Clc1cccc(N2N=NCC2c2ccncc2)c1 (stereo not shown) [Compound 12, 1-(m-chlorophenyl)-5-(4-pyridyl)-Δ^2-1,2,3-triazoline]
protection ([2]; 300 mg/kg): 100%
Anticonvulsant Activity Group Classification [2]: II (Class II compounds show anticonvulsant activity at doses greater than 100 mg/kg or show activity at 100 mg/kg which is not reinforced by similar activity at 300 mg/kg)
signs of neurological deficit [2]: without any signs of neurological deficit

CCc1ccc(N2N=NCC2c2ccccc2Cl)cc1 (stereo not shown) [Compound 3, 1-(p-Ethylphenyl)-5-(o-chlorophenyl)-Δ^2-1,2,3-triazoline]
Anticonvulsant Activity Group Classification [2]: II (Class II compounds show anticonvulsant activity at doses greater than 100 mg/kg or show activity at 100 mg/kg which is not reinforced by similar activity at 300 mg/kg)

O=[N+]([O-])c1cccc(N2N=NCC2c2ccc3ccccc3n2)c1 (stereo not shown) [Compound 15, 1-(m-Nitrophenyl)-5-(2-quinolyl)-Δ^2-1,2,3-triazoline]
Anticonvulsant Activity Group Classification [2]: II (Class II compounds show anticonvulsant activity at doses greater than 100 mg/kg or show activity at 100 mg/kg which is not reinforced by similar activity at 300 mg/kg)

Cc1ccc(N2N=NCC2c2ccncc2)cc1 (stereo not shown) [Compound 11, 1-(p-Methylphenyl)-5-(4-pyridyl)-Δ^2-1,2,3-triazoline]
Anticonvulsant Activity Group Classification [2]: II (Class II compounds show anticonvulsant activity at doses greater than 100 mg/kg or show activity at 100 mg/kg which is not reinforced by similar activity at 300 mg/kg)

c1ccc(N2N=NCC2c2ccccn2)cc1 (stereo not shown) [Compound 13, 1-(phenyl)-5-(2-pyridyl)-Δ^2-1,2,3-triazoline]
Anticonvulsant Activity Group Classification [2]: II (Class II compounds show anticonvulsant activity at doses greater than 100 mg/kg or show activity at 100 mg/kg which is not reinforced by similar activity at 300 mg/kg)

O=C1NC(=O)C(c2ccccc2)(c2ccccc2)N1 [Phenytoin, phenytoin]
animals protected, sc Strych test [4]: 50%
Slope, regression line, HD50 (righting reflex) (in vivo [5]; mice, i.p.): 14.03
Time of Test / time of peak toxicity, righting reflex (in vivo [5]; mouse, in vivo, ip): 12 h
effectiveness by the sc Bic test [7]: ineffective against Metrazol, bicuculline, and picrotoxin
effectiveness by the sc Pic test [8]: ineffective against Metrazol, bicuculline, and picrotoxin
Time of Test / time of peak effect (TPE), Rotorod (mice, i.p.): 2 h
TPE by all tests [11]: 2 h
effectiveness by the sc Met test ([1]; mice): ineffective against Metrazol, bicuculline, and picrotoxin
ED50 sc Met ([1]; mice, listed as phenytion): did not protect against subcutaneous Metrazol seizures

Fc1ccc(N2N=NCC2c2cccnc2)cc1Cl (stereo not shown) [Compound 18, 1-(m-chloro-p-fluorophenyl)-5-(3-pyridyl)-Δ ^2-1,2,3-triazoline]
Anticonvulsant Activity Group Classification [2]: II (Class II compounds show anticonvulsant activity at doses greater than 100 mg/kg or show activity at 100 mg/kg which is not reinforced by similar activity at 300 mg/kg)

FC(F)(F)c1ccc(N2N=NCC2c2ccccc2Cl)cc1 (stereo not shown) [Compound 2]
Anticonvulsant Activity Group Classification [2]: II (Class II compounds show anticonvulsant activity at doses greater than 100 mg/kg or show activity at 100 mg/kg which is not reinforced by similar activity at 300 mg/kg)

FC(F)(F)c1ccc(N2N=NCC2c2ccncc2)cc1 (stereo not shown) [Compound 16, 1-(p-trifluoromethylphenyl)-5-(4-pyridyl)-Δ^2-1,2,3-triazoline]
anticonvulsant potency [2]: most potent

c1ccc(N2N=NCC2c2ccncc2)cc1 (stereo not shown) [Compound 7, 1-(Phenyl)-5-(4-pyridyl)-Δ^2-1,2,3-triazoline]
protection ([2]; 600 mg/kg): 100%
Anticonvulsant Activity Group Classification [2]: II (Class II compounds show anticonvulsant activity at doses greater than 100 mg/kg or show activity at 100 mg/kg which is not reinforced by similar activity at 300 mg/kg)
signs of neurological deficit [2]: without any signs of neurological deficit

O=[N+]([O-])c1ccccc1C1CN=NN1c1cccc(Cl)c1 (stereo not shown) [Compound 4, 1-(m-Chlorophenyl)5-(o-nitrophenyl)-Δ^2-1,2,3-triazoline]
Anticonvulsant Activity Group Classification [2]: II (Class II compounds show anticonvulsant activity at doses greater than 100 mg/kg or show activity at 100 mg/kg which is not reinforced by similar activity at 300 mg/kg)

Clc1cccc(Cl)c1C1CN=NN1c1ccc(Br)cc1 (stereo not shown) [Compound 6, 1-(p-Bromophenyl)-5-(2,6-dichlorophenyl)-Δ^2-1,2,3-triazoline]
Anticonvulsant Activity Group Classification [2]: II (Class II compounds show anticonvulsant activity at doses greater than 100 mg/kg or show activity at 100 mg/kg which is not reinforced by similar activity at 300 mg/kg)

CCC1(C)CC(=O)NC1=O (stereo not shown) [Ethosuximide, ethosuximide]
ED50 ([3]; rats, p.o.): 54 mg/kg
animals protected, sc Strych test [4]: ≤ 62%
Slope, regression line, HD50 (righting reflex) (in vivo [5]; mouse, in vivo, ip): 16.43
Time of Test / time of peak toxicity, righting reflex (in vivo [5]; mouse, in vivo, ip): 1/2
Time of Test / time of peak effect (TPE), MES ([6]; i.p.): 1/2
Time of Test / time of peak effect (TPE), sc Met [12]: 1/2
effectiveness by the sc Bic test [7]: had to be given in toxic doses to protect against sc Bic seizures
effectiveness by the sc Pic test [8]: effective by the sc Met, sc Bic, and sc Pic tests
Time of Test / time of peak effect (TPE), Rotorod (mouse, in vivo, ip): 1/2
TD50 (rotorod) (mouse, in vivo, po): 879.21 mg/kg
effectiveness by the sc Met test ([1]; mice): effective by the sc Met, sc Bic, and sc Pic tests
ED50 sc Met ([1]; mice): 130.35 mg/kg
ED50 scMet ([1]; mice, p.o.): 192.71 mg/kg
